A short description of assay [1]: Antiproliferative activity against human TOV21G cells after 72 hrs by oxyluciferin luminescence assay.
Assay [2] relates to RKO. In words: Antiproliferative activity against human RKO cells after 72 hrs by oxyluciferin luminescence assay.
A short description of assay [3]: Antiproliferative activity against human RPMI8266 cells after 72 hrs by oxyluciferin luminescence assay. The following applies: RPMI8266, 72 h.
Assay [4] deals with A-431. In words: Antiproliferative activity against human A431 cells after 72 hrs by oxyluciferin luminescence assay. The following applies: A-431, 72 h.
Assay [5] relates to CCRF-CEM. In words: Antiproliferative activity against human CCRF-CEM cells after 72 hrs by oxyluciferin luminescence assay.
In assay [6] the test system is HCT-116. As to the kind of experiment: Antiproliferative activity against human HCT116 cells after 72 hrs by oxyluciferin luminescence assay. The following applies: HCT-116, 72 h.

Each structure is given as a SMILES string.

As usually defined, the IC50 is the concentration needed to halve the response being measured. Take `CCCCC(=O)N[C@@H](Cc1ccccc1)C(=O)N[C@H]1/C=C/CCNC(=O)/C=C/[C@H](C(C)C)NC1=O`: the IC50 in assay [1] worked out at 427 nM; in assay [2], 415 nM; in assay [3], 138 nM; in assay [4], 413 nM; in assay [5], 61.1 nM; in assay [6], 402 nM.

Consider `CCCCCC(=O)N[C@@H](Cc1ccccc1)C(=O)N[C@H]1/C=C/CCNC(=O)/C=C/[C@H](C(C)C)NC1=O`, for which the IC50 in assay [1] was determined as 131 nM; in assay [2] it was 52.6 nM; in assay [3] it was 42.6 nM; in assay [4], 128 nM; in assay [5], 28.6 nM; in assay [6], 61.4 nM.

For the compound `CCCCCCC(=O)N[C@@H](Cc1ccccc1)C(=O)N[C@H]1/C=C/CCNC(=O)/C=C/[C@H](C(C)C)NC1=O`, the IC50 is 60.7 nM in assay [1]; 33.4 nM in assay [2]; 18.9 nM in assay [3]; 57.7 nM in assay [4]; 11.6 nM in assay [5]; 24.5 nM in assay [6].

As for `CCCCCCCC(=O)N[C@@H](Cc1ccccc1)C(=O)N[C@H]1/C=C/CCNC(=O)/C=C/[C@H](C(C)C)NC1=O`, the IC50 in assay [1] was determined as 19 nM; in assay [2], 14.8 nM; in assay [3], 9.9 nM; in assay [4], 20.2 nM; in assay [5], 6.6 nM; in assay [6] it was 14 nM.

For the compound `CCCCCCCCC(=O)N[C@@H](Cc1ccccc1)C(=O)N[C@H]1/C=C/CCNC(=O)/C=C/[C@H](C(C)C)NC1=O`, the IC50 in assay [1] came out at 10.4 nM; in assay [2], 8.6 nM; in assay [3], 8.2 nM; in assay [4], 18.2 nM; in assay [5], 1.8 nM; in assay [6] it was 7.1 nM.

`CCCCCCCCCCC(=O)N[C@@H](Cc1ccccc1)C(=O)N[C@H]1/C=C/CCNC(=O)/C=C/[C@H](C(C)C)NC1=O`: the IC50 was 19.3 nM in assay [1]; 19.2 nM in assay [2]; 14.4 nM in assay [3]; 38.2 nM in assay [4]; 7.4 nM in assay [5]; 36 nM in assay [6].

For the compound `CCCCCCCCCCCC(=O)N[C@@H](Cc1ccccc1)C(=O)N[C@H]1/C=C/CCNC(=O)/C=C/[C@H](C(C)C)NC1=O`, the concentration for half-maximal inhibition (IC50) was 27.5 nM in assay [1]; 33.6 nM in assay [2]; 29.6 nM in assay [3]; 44.8 nM in assay [4]; 14.8 nM in assay [5]; 37.4 nM in assay [6].

In the case of `CCCCCCCCCCCCC(=O)N[C@@H](Cc1ccccc1)C(=O)N[C@H]1/C=C/CCNC(=O)/C=C/[C@H](C(C)C)NC1=O`, the IC50 in assay [1] came out at 48.3 nM; in assay [2] it was 49.8 nM; in assay [3], 88.3 nM; in assay [4], 82.2 nM; in assay [5] it was 36.9 nM; in assay [6], 73.9 nM.

As to `CCCCCCCCCCCCCC(=O)N[C@@H](Cc1ccccc1)C(=O)N[C@H]1/C=C/CCNC(=O)/C=C/[C@H](C(C)C)NC1=O`, the IC50 was 425 nM in assay [1]; 470 nM in assay [2]; 735 nM in assay [3]; 430 nM in assay [4]; 409 nM in assay [5]; 413 nM in assay [6].

For `CCCCCCCCCC(=O)N[C@H](C(=O)N[C@H]1/C=C/CCNC(=O)/C=C/[C@H](C(C)C)NC1=O)c1ccccc1`, the IC50 was 9.5 nM in assay [1]; 20.8 nM in assay [2]; 26.9 nM in assay [3]; 27.8 nM in assay [4]; 11 nM in assay [5]; 45.1 nM in assay [6].

For the compound `CCCCCCCCCC(=O)N[C@@H](CCc1ccccc1)C(=O)N[C@H]1/C=C/CCNC(=O)/C=C/[C@H](C(C)C)NC1=O`, the IC50 in assay [1] turned out to be 9.6 nM; in assay [2], 27 nM; in assay [3] it was 14.9 nM; in assay [4] it was 16.8 nM; in assay [5], 11.6 nM; in assay [6], 28.4 nM.

`CCCCCCCCCC(=O)N[C@@H](CCCc1ccccc1)C(=O)N[C@H]1/C=C/CCNC(=O)/C=C/[C@H](C(C)C)NC1=O`: the IC50 in assay [1] was determined as 8.5 nM; in assay [2], 39.8 nM; in assay [3] it was 23.5 nM; in assay [4] it was 31.7 nM; in assay [5], 9.4 nM; in assay [6], 40.6 nM.

As for `CCCCCCCCCC(=O)N[C@@H](CC1CCCCC1)C(=O)N[C@H]1/C=C/CCNC(=O)/C=C/[C@H](C(C)C)NC1=O`, the IC50 was determined as 48.9 nM in assay [1]; 35.1 nM in assay [2]; 21 nM in assay [3]; 52.8 nM in assay [4]; 21.4 nM in assay [5]; 38.6 nM in assay [6].

With `CCCCCCCCCC(=O)N[C@@H](Cc1ccccc1F)C(=O)N[C@H]1/C=C/CCNC(=O)/C=C/[C@H](C(C)C)NC1=O`, the IC50 in assay [1] was determined as 8.2 nM; in assay [2] it was 6.8 nM; in assay [3] it was 5.6 nM; in assay [4], 14.9 nM; in assay [5], 3.3 nM; in assay [6] it was 7.1 nM.

Take `CCCCCCCCCC(=O)N[C@@H](Cc1cccc(F)c1)C(=O)N[C@H]1/C=C/CCNC(=O)/C=C/[C@H](C(C)C)NC1=O`: the IC50 was found to be 21.1 nM in assay [1]; 11.8 nM in assay [2]; 8.8 nM in assay [3]; 27.7 nM in assay [4]; 5.5 nM in assay [5]; 15 nM in assay [6].

With `CCCCCCCCCC(=O)N[C@@H](Cc1ccc(F)cc1)C(=O)N[C@H]1/C=C/CCNC(=O)/C=C/[C@H](C(C)C)NC1=O`, the IC50 in assay [1] stood at 19 nM; in assay [2], 14.8 nM; in assay [3], 8.6 nM; in assay [4], 33.2 nM; in assay [5] it was 4.9 nM; in assay [6], 23.1 nM.

As to `CCCCCCCCCC(=O)N[C@@H](Cc1ccccc1Cl)C(=O)N[C@H]1/C=C/CCNC(=O)/C=C/[C@H](C(C)C)NC1=O`, the IC50 was found to be 7.1 nM in assay [1]; 7.4 nM in assay [2]; 8.8 nM in assay [3]; 9.9 nM in assay [4]; 8.2 nM in assay [5]; 8.7 nM in assay [6].

As for `CCCCCCCCCC(=O)N[C@@H](Cc1cccc(Cl)c1)C(=O)N[C@H]1/C=C/CCNC(=O)/C=C/[C@H](C(C)C)NC1=O`, the IC50 in assay [1] amounted to 13.8 nM; in assay [2], 14.9 nM; in assay [3], 9.4 nM; in assay [4], 18.4 nM; in assay [5], 5.2 nM; in assay [6], 15.6 nM.

As to `CCCCCCCCCC(=O)N[C@@H](Cc1ccc(Cl)cc1)C(=O)N[C@H]1/C=C/CCNC(=O)/C=C/[C@H](C(C)C)NC1=O`, the half-inhibitory concentration (IC50) in assay [1] is 12.3 nM; in assay [2], 19.6 nM; in assay [3], 12 nM; in assay [4], 23.3 nM; in assay [5] it was 4.5 nM; in assay [6], 21.7 nM.

Consider `CCCCCCCCCC(=O)N[C@@H](Cc1ccccc1Br)C(=O)N[C@H]1/C=C/CCNC(=O)/C=C/[C@H](C(C)C)NC1=O`, for which the IC50 in assay [1] worked out at 9.6 nM; in assay [2], 13 nM; in assay [3], 9.4 nM; in assay [4], 13.4 nM; in assay [5], 3.9 nM; in assay [6], 13.4 nM.

Consider `CCCCCCCCCC(=O)N[C@@H](Cc1cccc(Br)c1)C(=O)N[C@H]1/C=C/CCNC(=O)/C=C/[C@H](C(C)C)NC1=O`, for which the IC50 in assay [1] was determined as 12.8 nM; in assay [2] it was 16.3 nM; in assay [3] it was 9.6 nM; in assay [4], 15.5 nM; in assay [5], 4.6 nM; in assay [6], 18 nM.
